Data set [1] addresses T1, hGPR17 (Homo sapiens, UniProt Q13304). Put plainly: [35S]GTPγS binding to membranes of 1321N1 cells expressing human GPR17. It counts as biochemical. Also noted: expressed in transfected cells; host or cells: 1321N1 (A1, A5), COS-7 (A3, A6), HEK-293 (A4); pcDNA3.1. The note with it: for effect on [35S]GTPγS binding (agonist response): tested at 10 and 50 μM, 1321N1 cells expressing hGPR17; for EC50: agonist, 1321N1 cells expressing human GPR17. The procedure:
(§1) [^35S]GTPγS Binding Assay. 1321N1 cells, COS-7 and HEK-293 cells (control and transfected cells) were homogenized in 5 mM TRIS-HCl, 2 mM EDTA, pH 7.4 and centrifuged at 48000 g for 15 min at 4° C. The resulting pellets (plasma membranes) were washed in 50 mM TRIS-HCl, 10 mM MgCl2, pH 7.4 and stored at −80° C. until used. Measurement of nucleotide-stimulated [^35S]GTPγS binding to membranes of cells expressing the human or rat GPR17 receptor was performed as previously described^9-11.
(§2) To identify the endogenous ligand of GPR17, the cDNAs from human and rat GPR17 were cloned into the mammalian expression vector pcDNA3.1 and transfected in 1321N1, COS-7 and HEK-293 cells for functional characterization. GPR17 activation was assessed by testing the ability of exogenously-added ligands to increase [^35S]GTPγS binding to purified membranes obtained from transfected cells^9-11. […] The specificity of GPR17 responses were also challenged by assessing the ability of some purinergic and leukotriene receptor antagonists to counteract the increase of [^35S]GTPγS binding evoked by nucleotides and cys-LTs in 1321N1 cells expressing either the human or rat receptor. […] Because both P2Y^2,11,12 and CysLT receptors^3,13 may couple to G proteins of the Gi subfamily, to evaluate the involvement of this class of G-proteins, we preincubated 1321N1 cells expressing hGPR17 with pertussis toxin (PTX) which inactivates Gi proteins, prior to membrane preparation and [^35S]GTPγS binding.
(§3) Table 1. Potency of various ligands on [^35S]GTPγS binding to membranes obtaind from 1321N1 cells-transfected with human or rat GPR17. […] All data represent the mean of triplicate determinations from 4-9 independent experiments.

In data set [2] the target is T2, rat GPR17 (Rattus norvegicus, UniProt Q09QM4).
T2 construct: expressed in transfected cells; host or cells: 1321N1; pcDNA3.1
In words: [35S]GTPγS binding to membranes of 1321N1 cells expressing rat GPR17. It counts as biochemical. The note with it: for IC50: rat GPR17; for EC50: agonist, 1321N1 cells expressing rat GPR17. The procedure: as §1, §2, §3
On the technique in general: GTPγS is a poorly hydrolysed GTP analogue; its binding reports G protein activation.

Data set [3] concerns the target T1, hGPR17. Put plainly: Single cell calcium imaging in COS-7 cells expressing hGPR17. It is filed as cell-based. Also noted: expressed in transfected cells; host or cells: COS-7 (A3, A6); pcDNA3.1. From the text:
(e-h) The same agonists induced no responses in cells transfected with the empty plasmid. […] Polychrome IV (TILL Photonics, Germany) was used as light source. Fura-2 and EGFP fluorescence images were collected with a PCO Super […] (Axon Instruments, Forest City, Calif.) and analyzed with the Axon Imaging Workbench 2.2 software (Axon Instruments).

For data set [4], the target named is T1, hGPR17. In words: Single cell calcium imaging in 1321N1 cells expressing hGPR17. It is filed as cell-based. Details: expressed in transfected cells; host or cells: 1321N1 (A1, A5), COS-7 (A3, A6), HEK-293 (A4); pcDNA3.1. From the text: Polychrome IV (TILL Photonics, Germany) was used as light source. Fura-2 and EGFP fluorescence images were collected with a PCO Super […] (Axon Instruments, Forest City, Calif.) and analyzed with the Axon Imaging Workbench 2.2 software (Axon Instruments).

In data set [5] the target is T1, hGPR17. Put plainly: [35S]GTPγS binding, COS-7 cells expressing hGPR17. It counts as biochemical. Also noted: expressed in transfected cells; host or cells: COS-7 (A3, A6); pcDNA3.1. The note with it: COS-7 cells transfected with hGPR17. The method, then: as §1
To identify the endogenous ligand of GPR17, the cDNAs from human and rat GPR17 were cloned into the mammalian expression vector pcDNA3.1 and transfected in 1321N1, COS-7 and HEK-293 cells for functional characterization. GPR17 activation was assessed by testing the ability of exogenously-added ligands to increase [^35S]GTPγS binding to purified membranes obtained from transfected cells^9-11. […] The specificity of GPR17 responses were also challenged by assessing the ability of some purinergic and leukotriene receptor antagonists to counteract the increase of [^35S]GTPγS binding evoked by nucleotides and cys-LTs in 1321N1 cells expressing either the human or rat receptor. […]

Data set [6] relates to ischemic brain damage (MCAo). In words: Permanent middle cerebral artery occlusion (MCAo), brain infarct size by MRI. It is filed as in vivo, rat. Conditions: 400 ng/animal i.c.v. 48 and 24 h before and 10 min after MCAo. The method, then:
Quantitative analysis of infarct size volume at 24 and 48 h after MCAo from rats receiving vehicle (C1, n=5) or Mtk (2 mg/kg intravenously, i.v., 10 min after MCAO; n=6); vehicle (C2, n=5) or AR-C (4.5 μg/animal intracerebroventricularly, i.c.v., 10 min after MCAo, n=5), vehicle (C3, n=5) or either oligo616 or scrambled-oligo (400 ng/animal, i.c.v., 48, 24 before and 10 min after MCAo, n=5). Data are expressed as percentage variation of infarct volume at 24 and 48 hours after MCAo compared to 2 h considered as 100% (§ p<0.05, # p<0.01 vs volume at 2 hr; *p <0.05, **p<0.01 vs corresponding control evaluated at the same time point). Induction of focal brain ischemia in the rat. Male Sprague-Dawley rats (Charles River) underwent permanent middle cerebral artery occlusion (MCAo) as previously described^28,29. […] AR-C was utilized here to simply test the involvement of GPR17 in brain ischemia, and, being a very polar molecule which is likely to very poorly permeate the blood brain barrier, it was administered i.c.v. Oligo-616 and oligo-scramble (400 ng in 5 μl of physiological solution) were administered i.c.v three times to each rat 48, 24 h before and 10 minutes after MCAo. Control groups received corresponding vehicle i.c.v. Magnetic Resonance Imaging analysis. […]

14 compounds from patent US8158593B2, “GPR17 modulators, method of screening and uses thereof” (Universita' degli Studi di Milano, priority 2004, dated 2012) can be followed below.

Read-outs that look alike come from different tables or passages of the source.

Broadly, the IC50 is the concentration needed to halve the response being measured. Read a low IC50 as greater potency. Usually EC50 stands for the midpoint of the concentration-response curve.

T2 sequence (Q09QM4 whole entry): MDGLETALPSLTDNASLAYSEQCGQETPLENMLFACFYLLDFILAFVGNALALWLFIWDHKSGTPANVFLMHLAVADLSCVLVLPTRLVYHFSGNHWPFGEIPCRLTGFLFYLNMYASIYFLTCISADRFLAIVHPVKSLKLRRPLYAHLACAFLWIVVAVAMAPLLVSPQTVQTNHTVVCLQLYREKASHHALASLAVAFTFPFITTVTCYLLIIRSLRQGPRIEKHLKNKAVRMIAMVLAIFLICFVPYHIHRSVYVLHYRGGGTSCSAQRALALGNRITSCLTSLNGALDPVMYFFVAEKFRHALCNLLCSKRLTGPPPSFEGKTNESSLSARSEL
T1 sequence (Q13304 29-367): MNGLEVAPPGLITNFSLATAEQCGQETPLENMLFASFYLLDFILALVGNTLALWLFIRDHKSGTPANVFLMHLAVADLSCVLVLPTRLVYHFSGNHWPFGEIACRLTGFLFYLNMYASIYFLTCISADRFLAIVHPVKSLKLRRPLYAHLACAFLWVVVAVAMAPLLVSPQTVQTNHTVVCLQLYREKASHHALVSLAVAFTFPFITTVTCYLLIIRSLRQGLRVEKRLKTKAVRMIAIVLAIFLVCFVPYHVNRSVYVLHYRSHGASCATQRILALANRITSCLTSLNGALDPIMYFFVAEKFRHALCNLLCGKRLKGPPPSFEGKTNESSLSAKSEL

Take `Nc1ncnc2c1ncn2[C@@H]1O[C@H](COP(=O)(O)OP(=O)(O)OP(=O)(O)O)[C@@H](O)[C@H]1O` [ATP]: the “effect on [35S]GTPγS binding (agonist response)” value (“effect on [35S]GTPγS binding” below) in data set [1] was “No other nucleotides or nucleosides (i.e., ATP, ADP, 2-methyl-thio-ADP, UTP, α,βmethylenATP and guanosine, all tested at 10 and 50 μM concentrations) had any effect”.

Regarding `CC(C)(O)c1ccccc1CC[C@@H](SCC1(CC(=O)O)CC1)c1cccc(/C=C/c2ccc3ccc(Cl)cc3n2)c1` [Montelukast], the half-inhibitory concentration (IC50) in data set [1] was determined as 60 ± 4.3 nM.

With `Nc1ncnc2c1ncn2[C@@H]1O[C@H](COP(=O)(O)OP(=O)(O)O)[C@@H](O)[C@H]1O` [ADP], in data set [1], the “effect on [35S]GTPγS binding” value was “No other nucleotides or nucleosides (i.e., ATP, ADP, 2-methyl-thio-ADP, UTP, α,βmethylenATP and guanosine, all tested at 10 and 50 μM concentrations) had any effect”.

With `O=C(Nc1cccc2c(=O)cc(-c3nnn[nH]3)oc12)c1ccc(OCCCCc2ccccc2)cc1` [Pranlukast], the IC50 in data set [2] (antagonist of activation induced by 100 nM LTD4) stood at 31 ± 2.4 nM; in data set [1] (antagonist of activation induced by 100 nM LTD4, human GPR17), 10.5 ± 1.2 nM.

As to `CSc1nc(N)c2ncn([C@@H]3O[C@H](COP(=O)(O)OP(=O)(O)O)[C@@H](O)[C@H]3O)c2n1` [2-methyl-thio-ADP], the “effect on [35S]GTPγS binding” value in data set [1] was “No other nucleotides or nucleosides (i.e., ATP, ADP, 2-methyl-thio-ADP, UTP, α,βmethylenATP and guanosine, all tested at 10 and 50 μM concentrations) had any effect”.

In the case of `CCCCC/C=C\C\C=C/C=C/C=C/[C@@H](SC[C@H](N)C(=O)NCC(=O)O)[C@@H](O)CCCC(=O)O` [LTD, LTD4], the “cells showing [Ca2+]i transient” value in data set [3] is “approximately 50%”. Moreover, the “mean calcium response ΔF340/380” value in data set [3] (n=22) is 0.18±0.03. In addition, the figures for the EC50 in data set [2] and in data set [1] were 5.9 ± 0.4 nM and 7.2 ± 0.3 nM, respectively. Also, in data set [4], the “cells showing rise of [Ca2+]i” value is given as “approximately 30%”. Besides, the “response in [35S]GTPγS binding” value in data set [5] is “induced responses”.

In the case of `CCCCC/C=C\C\C=C/C=C/C=C/[C@@H](SC[C@H](NC(=O)CC[C@H](N)C(=O)O)C(=O)NCC(=O)O)[C@@H](O)CCCC(=O)O` [LTC, LTC4], the EC50 turned out to be 65 ± 4.2 nM in data set [2] and 0.33 ± 0.011 nM in data set [1]. For the same compound, in data set [5], the “response in [35S]GTPγS binding” value is recorded as “induced responses”.

As for `Nc1ncnc2c1ncn2[C@@H]1O[C@H](COP(=O)(O)CP(=O)(O)OP(=O)(O)O)[C@@H](O)[C@H]1O` [α,βmethylenATP], the “effect on [35S]GTPγS binding” value in data set [1] is “No other nucleotides or nucleosides (i.e., ATP, ADP, 2-methyl-thio-ADP, UTP, α,βmethylenATP and guanosine, all tested at 10 and 50 μM concentrations) had any effect”.

`CSCCNc1nc(SCCC(F)(F)F)nc2c1ncn2C1OC(COP(=O)(O)OP(=O)(O)C(Cl)(Cl)P(=O)(O)O)C(O)C1O` (stereo not drawn) [AR-C69931MX, N6-methylthio-ethyl-2-trifluoromethyl-ethylthio-adenosin-5′beta-methylene, γ-dichloromethylene trisphosphate] gave an IC50 in data set [2] (antagonist of binding stimulated by 50 μM UDP-glucose) of 0.022 ± 0.0015 nM.

In data set [1] (antagonist of binding stimulated by 50 μM UDP-glucose, human GPR17), “N6-methyl-adenosin-3′,5′-bis-phosphate [MRS 2179]” returned an IC50 of 508 ± 29 nM.

For `O=c1ccn([C@@H]2O[C@H](COP(=O)(O)OP(=O)(O)OP(=O)(O)O)[C@@H](O)[C@H]2O)c(=O)[nH]1` [UTP], in data set [1], the “effect on [35S]GTPγS binding” value was “No other nucleotides or nucleosides (i.e., ATP, ADP, 2-methyl-thio-ADP, UTP, α,βmethylenATP and guanosine, all tested at 10 and 50 μM concentrations) had any effect”.

Take “oligo241: antisense oligonucleotide designed on the sequence of rGPR17 mRNA, SEQ ID NO: 2, unmodified (antisense GGGATCACAAGTCAGGCAC; unmodified DNA; listed as Rattus norvegicus)”: the “evolution of brain infarct size (MRI)” value in data set [6] was “smaller protective effect”.

For PTX, the “inhibition of agonist-stimulated [35S]GTPγS binding” value in data set [1] (cells exposed to 100 ng/ml PTX for 18 h before membrane preparation, stimulated by UDP, UDP-galactose, UDP-glucose or LTD4) is reported as “strongly inhibited”.

With `Nc1nc2c(ncn2[C@@H]2O[C@H](CO)[C@@H](O)[C@H]2O)c(=O)[nH]1` [guanosine], in data set [1], the “effect on [35S]GTPγS binding” value was “No other nucleotides or nucleosides (i.e., ATP, ADP, 2-methyl-thio-ADP, UTP, α,βmethylenATP and guanosine, all tested at 10 and 50 μM concentrations) had any effect”.
